Laboratory results reported in patent publication US20160052926A1, “NOVEL PYRIMIDINE AND PYRIDINE COMPOUNDS AND USAGE THEREOF” (HUTCHISON MEDIPHARMA LIMITED, priority 2013, published 2016).

Assays:
Recombinant human FGFR2 = Recombinant human FGFR2 (Homo sapiens, UniProt P21802); assay: Transcreener Kinase Assay of FGFR2; assay type: biochemical; settings: read-out: FGFR2 (FP) IC50
RT-112 = assay: Cellular Proliferation Assay (Cell Counting Kit-8), RT-112; assay type: cell-based; settings: Homo sapiens, RT-112 cells, 72 hours
Protocol: (§1) Cellular Proliferation Assay
(§2) • KG-1 (ATCC Accession No. CCL-246), • SNU-16 (ATCC Accession No. CRL-5974), • RT-112 (ECACC Accession No. 85061106)
(§3) • FGFR related cancer cell proliferation is measured in 96-well plates using Cell Counting Kit-8 (Dojindo CK04-13). • Seed 30000 cells/well of KG1, 5000 cells/well of SNU16, and 1000 cells/well of RT112 in a volume of 100 μL/well in growth media. • After 24 hours, dilute the compound to 10, 3.3, 1.1, 0.37, 0.12, 0.04, 0.013, 0.004 μM, keeping the DMSO concentration at 5%. • Add 10 μL of 8-point compound series to the wells of culturing cells. • Incubate at 37° C. and 5% CO2 for 72 hours • Add 10 μL/well of CCkit8 and incubate at 37° C. and 5% CO2 for an hour • Detect the optical density of each well at 450 nm on Labsystems Multiskan K3.
(§4) • ODcompound well represents the optical density of cells treated with compound. • ODcell well represents the optical density of cells without compounds treatment. (only 0.5% DMSO) • ODcontrol well represents the optical density of culture media background
(§5) The concentration of compound providing 50% of proliferation inhibition was calculated using Excel Fit.

SNU-16 = assay: Cellular Proliferation Assay (Cell Counting Kit-8), SNU-16; assay type: cell-based; settings: Homo sapiens, SNU-16 cells, 72 hours
Protocol: as §1, §2, §3, §4, §5

KG-1 = assay: Cellular Proliferation Assay (Cell Counting Kit-8), KG-1; assay type: cell-based; settings: Homo sapiens, KG1 cells, 72 hours
Protocol: as §1, §2, §3, §4, §5

FGFR3 kinase = FGFR3 kinase (Homo sapiens, UniProt P22607); assay: Z-Lyte Kinase Assay of FGFR3; assay type: biochemical
Chain of FGFR3 kinase (P22607 23-806): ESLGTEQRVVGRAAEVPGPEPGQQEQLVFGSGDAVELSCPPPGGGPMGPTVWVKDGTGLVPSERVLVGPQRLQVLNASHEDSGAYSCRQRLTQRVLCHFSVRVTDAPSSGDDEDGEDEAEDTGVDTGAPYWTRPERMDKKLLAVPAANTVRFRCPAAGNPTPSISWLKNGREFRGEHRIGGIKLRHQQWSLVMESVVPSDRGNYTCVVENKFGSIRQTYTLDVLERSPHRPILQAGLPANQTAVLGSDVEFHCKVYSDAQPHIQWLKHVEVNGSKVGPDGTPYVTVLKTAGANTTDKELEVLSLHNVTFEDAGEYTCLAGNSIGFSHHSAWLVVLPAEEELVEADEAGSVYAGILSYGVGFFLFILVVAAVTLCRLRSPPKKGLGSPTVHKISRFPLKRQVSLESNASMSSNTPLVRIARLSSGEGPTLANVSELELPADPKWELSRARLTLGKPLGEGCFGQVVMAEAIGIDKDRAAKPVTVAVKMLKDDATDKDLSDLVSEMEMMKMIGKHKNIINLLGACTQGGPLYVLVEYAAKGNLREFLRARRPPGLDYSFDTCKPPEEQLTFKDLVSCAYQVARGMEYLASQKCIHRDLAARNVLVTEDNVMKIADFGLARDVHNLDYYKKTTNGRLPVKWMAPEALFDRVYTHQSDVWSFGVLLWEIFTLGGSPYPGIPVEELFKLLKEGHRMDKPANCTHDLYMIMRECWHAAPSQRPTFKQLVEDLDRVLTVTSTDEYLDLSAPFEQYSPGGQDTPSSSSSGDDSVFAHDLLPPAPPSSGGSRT
Outline: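 Kinase at 0.7 μg/ml with 4 μM Z-LYTE Tyr 4 peptide and ATP diluted to 300 uM (working solution, 1.33× buffer); compounds 1–0.00046 μM, 2% DMSO final. Kinase reaction and development each 1 h at RT (25-30[…]); coumarin (445 nm) and fluorescein (520 nm) emission read, inhibition from % phosphorylation.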

Recombinant human FGFR1 = Recombinant human FGFR1 (Homo sapiens, UniProt P11362); assay: Transcreener Kinase Assay of FGFR1; assay type: biochemical; settings: read-out: FGFR1 (FP) IC50
Chain of Recombinant human FGFR1 (P11362 22-822): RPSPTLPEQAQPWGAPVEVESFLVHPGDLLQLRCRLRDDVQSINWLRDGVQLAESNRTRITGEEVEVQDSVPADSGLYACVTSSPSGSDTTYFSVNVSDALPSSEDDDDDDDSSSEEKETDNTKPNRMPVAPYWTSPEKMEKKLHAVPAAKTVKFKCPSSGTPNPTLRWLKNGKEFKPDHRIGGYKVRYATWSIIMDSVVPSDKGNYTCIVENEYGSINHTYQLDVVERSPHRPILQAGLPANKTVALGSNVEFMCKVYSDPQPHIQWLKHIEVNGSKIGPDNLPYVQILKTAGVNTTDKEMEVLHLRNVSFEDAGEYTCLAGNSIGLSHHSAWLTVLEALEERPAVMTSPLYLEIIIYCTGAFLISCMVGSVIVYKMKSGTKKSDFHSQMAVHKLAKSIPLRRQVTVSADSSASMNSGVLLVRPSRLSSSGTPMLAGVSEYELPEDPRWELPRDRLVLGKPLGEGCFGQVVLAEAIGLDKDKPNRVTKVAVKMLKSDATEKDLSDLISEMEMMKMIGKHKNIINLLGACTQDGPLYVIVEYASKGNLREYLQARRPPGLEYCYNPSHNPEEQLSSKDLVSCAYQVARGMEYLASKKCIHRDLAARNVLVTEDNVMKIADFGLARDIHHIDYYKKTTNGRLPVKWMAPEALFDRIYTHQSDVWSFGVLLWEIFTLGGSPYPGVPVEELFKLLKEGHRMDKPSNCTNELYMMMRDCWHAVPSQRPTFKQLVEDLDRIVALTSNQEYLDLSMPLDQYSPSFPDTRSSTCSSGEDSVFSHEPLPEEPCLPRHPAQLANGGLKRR

Chain of Recombinant human FGFR2 (P21802 22-821): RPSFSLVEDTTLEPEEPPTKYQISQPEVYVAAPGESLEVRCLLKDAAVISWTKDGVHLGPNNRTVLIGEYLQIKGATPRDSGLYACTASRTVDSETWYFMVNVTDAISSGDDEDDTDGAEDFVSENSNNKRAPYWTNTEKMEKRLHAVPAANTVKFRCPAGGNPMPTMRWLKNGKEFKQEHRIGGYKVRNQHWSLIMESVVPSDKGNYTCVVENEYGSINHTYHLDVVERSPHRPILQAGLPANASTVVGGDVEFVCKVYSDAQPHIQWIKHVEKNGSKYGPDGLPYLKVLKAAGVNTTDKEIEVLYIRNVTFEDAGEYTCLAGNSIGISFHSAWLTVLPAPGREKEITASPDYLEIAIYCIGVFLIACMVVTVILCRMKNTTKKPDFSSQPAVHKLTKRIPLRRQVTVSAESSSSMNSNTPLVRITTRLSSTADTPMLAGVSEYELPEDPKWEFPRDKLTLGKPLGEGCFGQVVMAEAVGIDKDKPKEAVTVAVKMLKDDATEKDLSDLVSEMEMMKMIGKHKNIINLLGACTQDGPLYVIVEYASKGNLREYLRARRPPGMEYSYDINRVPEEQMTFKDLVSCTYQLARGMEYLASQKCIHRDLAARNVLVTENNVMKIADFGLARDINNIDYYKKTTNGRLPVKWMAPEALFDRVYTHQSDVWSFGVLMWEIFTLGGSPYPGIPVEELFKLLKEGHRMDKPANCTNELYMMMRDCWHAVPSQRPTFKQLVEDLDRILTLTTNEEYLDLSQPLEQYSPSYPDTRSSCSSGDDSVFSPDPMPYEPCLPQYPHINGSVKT

IC50 (Recombinant human FGFR2) | IC50 (SNU-16) | IC50 (FGFR3 kinase) | IC50 (Recombinant human FGFR1) | SMILES | IC50 (RT-112) | IC50 (KG-1)
5 nM | 88 nM | 14 nM | 12 nM | CNC(=O)c1cc(CCc2cnc(Nc3cnn(CCO)c3)nc2)c(F)c(OC)c1 [Compound 114] | 591 nM | 71 nM
5 nM | 20 nM | 9 nM | 9 nM | CNC(=O)c1cc(CCc2cnc(Nc3cnn(CCOC)c3)nc2)c(Cl)c(OC)c1 [Compound 127] | 66 nM | 22 nM
19 nM | 46 nM | 22 nM | 22 nM | CNC(=O)c1cc(CCc2cnc(Nc3cnn(CCN4CCCC4)c3)nc2)c(F)c(OC)c1 [Compound 135] | 230 nM | 368 nM
68 nM | 534 nM | 334 nM | 181 nM | CNC(=O)c1cc(COc2ccc(Nc3ccc(N4C[C@@H](C)N[C@@H](C)C4)cc3)nc2)c(F)c(OC)c1 [Compound 191] | 540 nM | 647 nM
23 nM | 236 nM | 287 nM | 42 nM | CNC(=O)c1cc(CCc2cnc(Nc3ccc4c(c3)OCO4)nc2)c(F)c(OC)c1 [Compound 31] | 491 nM | 178 nM
10 nM | 15 nM | 14 nM | 20 nM | CNC(=O)c1cc(CCc2cnc(Nc3cnn(-c4cccnc4)c3)nc2)c(F)c(OC)c1 [Compound 128] | 112 nM | 47 nM
11 nM | 16 nM | 15 nM | 16 nM | CNC(=O)c1cc(CCc2cnc(Nc3cnn([C@H]4CCN(C)C4)c3)nc2)c(F)c(OC)c1 [Compound 168] | 414 nM | 32 nM
7 nM | 55 nM | 25 nM | 18 nM | CNC(=O)c1cc(CCc2cnc(Nc3ccn4ccnc4c3)nc2)c(F)c(OC)c1 [Compound 66] | 201 nM | 194 nM
6 nM | 75 nM | 8 nM | 8 nM | CNC(=O)c1cc(CCc2cnc(Nc3cnn([C@@H]4CCCNC4)c3)nc2)c(F)c(OC)c1 [Compound 159, (R)-4-fluoro-3-methoxy-N-methyl-5-(2-(2-(1-(piperidin-3-yl)-1H-pyrazol-4-ylamino)pyrimidin-5-yl)ethyl)benzamide] | 759 nM | 290 nM
3 nM | 4 nM | 2 nM | 2 nM | CCN1CCN(c2ccc(Nc3ncc(CCc4cc(C(=O)NOC)cc(OC)c4F)cn3)cc2)CC1 [Compound 55] | 16 nM | 3 nM
5 nM | 59 nM | 14 nM | 9 nM | CNC(=O)c1cc(CCc2cnc(Nc3cnn(CCO)c3)nc2)c(Cl)c(OC)c1 [Compound 148] | 495 nM | 24 nM
3 nM | 10 nM | 6 nM | 6 nM | CONC(=O)c1cc(CCc2cnc(Nc3ccc(N4C[C@@H](C)N[C@@H](C)C4)c(F)c3)nc2)cc(OC)c1 [Compound 54] | 31 nM | 18 nM
27 nM | 419 nM | 243 nM | 195 nM | CNC(=O)c1cc(CCc2cnc(Nc3cccnc3OC)nc2)c(F)c(OC)c1 [Compound 63] | 895 nM | 427 nM
6 nM | 16 nM | 12 nM | 12 nM | CNC(=O)c1cc(COc2cnc(Nc3ccc(N4C[C@@H](C)N[C@@H](C)C4)c(F)c3)nc2)c(F)c(OC)c1 [Compound 195] | 25 nM | 25 nM
3 nM | 112 nM | 10 nM | 5 nM | CONC(=O)c1cc(CCc2cnc(Nc3cnn(CCO)c3)nc2)cc(OC)c1 [Compound 108] | 562 nM | 110 nM
16 nM | 149 nM | 152 nM | 15 nM | CNC(=O)c1cc(CCc2cnc(Nc3cnn(-c4ccccn4)c3)nc2)c(Cl)c(OC)c1 [Compound 151] | 626 nM | 71 nM

IC50 (Recombinant human FGFR2) | IC50 (SNU-16) | IC50 (FGFR3 kinase) | IC50 (Recombinant human FGFR1) | SMILES | IC50 (RT-112) | IC50 (KG-1)
13 nM | 52 nM | 32 nM | 37 nM | CNC(=O)c1cc(CCc2cnc(Nc3ccc(N4CCCCC4=O)cc3)nc2)c(F)c(OC)c1 [Compound 145, 4-fluoro-3-methoxy-N-methyl-5-(2-(2-(4-(2-oxopiperidin-1-yl)phenylamino)pyrimidin-5-yl)ethyl)benzamide] | 260 nM | 154 nM
5 nM | 18 nM | 8 nM | 6 nM | CONC(=O)c1cc(CCc2cnc(Nc3ccc(N4C[C@@H](C)N[C@@H](C)C4)c(C)c3)nc2)cc(OC)c1 [Compound 49] | 62 nM | 75 nM
4 nM | 16 nM | 8 nM | 5 nM | CCN1CCN(c2cc(Nc3ncc(CCc4cc(OC)cc(C(=O)NOC)c4)cn3)ccn2)CC1 [Compound 76] | 67 nM | 43 nM
9 nM | 16 nM | 7 nM | 12 nM | CCN(CC)CCn1cc(Nc2ncc(OCc3cc(C(=O)NC)cc(OC)c3Cl)cn2)cn1 [Compound 190] | 17 nM | 37 nM
20 nM | 85 nM | 42 nM | 42 nM | CNC(=O)c1cc(CCc2cnc(Nc3ccc4nnc(C)n4c3)nc2)c(F)c(OC)c1 [Compound 69] | 337 nM | 268 nM
616 nM | 29 nM | 31 nM | 21 nM | CNC(=O)c1cc(CCc2cnc(Nc3cnn(CC(F)(F)F)c3)nc2)c(F)c(OC)c1 [Compound 36] | 160 nM | 52 nM
5 nM | 14 nM | 9 nM | 6 nM | CNC(=O)c1cc(CCc2cnc(Nc3ccc(N4CCNCC4)cc3)nc2)c(Cl)c(OC)c1 [Compound 196] | 20 nM | 51 nM
6 nM | 18 nM | 15 nM | 9 nM | CNC(=O)c1cc(CCc2cnc(Nc3cnn(C(C)C)c3)nc2)c(Cl)c(OC)c1 [Compound 121] | 65 nM | 7 nM
6 nM | 22 nM | 8 nM | 12 nM | CNC(=O)c1cc(CCc2cnc(Nc3cnn(CCN4CCOCC4)c3)nc2)c(F)c(OC)c1 [Compound 139] | 146 nM | 64 nM
9 nM | 53 nM | 21 nM | 18 nM | CNC(=O)c1cc(COc2cnc(Nc3ccc(O)cc3)nc2)c(F)c(OC)c1 [Compound 211] | 163 nM | 84 nM
3 nM | 30 nM | 20 nM | 8 nM | CNC(=O)c1cc(CCc2cnc(Nc3cccc(N4CCOCC4)c3)nc2)c(F)c(OC)c1 [Compound 38] | 86 nM | 28 nM
5 nM | 6 nM | 10 nM | 8 nM | CNC(=O)c1cc(COc2cnc(Nc3ccc(N4CCNCC4)cc3)nc2)c(F)c(OC)c1 [Compound 188] | 12 nM | 20 nM
53 nM | 708 nM | 591 nM | 126 nM | CNC(=O)c1cc(CCc2cnc(Nc3nc(C4CC4)cs3)nc2)c(Cl)c(OC)c1 [Compound 71] | 101 nM | 398 nM
7 nM | 239 nM | 16 nM | 19 nM | CNC(=O)c1cc(CCc2cnc(Nc3ccc4c(C)n(C)nc4c3)nc2)c(Cl)c(OC)c1 [Compound 84] | 122 nM | 248 nM
8 nM | 34 nM | 24 nM | 71 nM | CNC(=O)c1cc(CCc2cnc(Nc3cnn(-c4ccc(C)nc4)c3)nc2)c(F)c(OC)c1 [Compound 134] | 84 nM | 33 nM
